Active and inactive are the calls of the source. How the calls were made is not given here. Where only a bound is given, the exact number is not on record here.

Test system in the first assay: not listed separately
The experiment in a line: cellular cytoskeleton assembly phenotype modulators – imaging, high-content imaging, retest and dose response, confirmation (AID 1249).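 Further: compound exposure lasted 24 h before fixation.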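 On inhibition: plate controls were untreated cells for no effect and reference compound treated cells for full effect.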 To be noted: cell-based imaging, cytoskeleton assembly phenotype, high content; at 2 µM; stronger effect = higher value.
Usually inhibition stands for the drop in the measured response relative to a control, in per cent. As to `CCc1ccc(-c2nc(CN3CCC(C(=O)NCc4ccco4)CC3)c(C)o2)cc1`, the inhibition was 9.2% (inactive).
For the compound `CCOc1cc(C(=O)OCC(=O)c2c(C)[nH]c3ccccc23)ccc1OCC(=O)N1CCOCC1`, the inhibition is -10.4% (inactive).
For `O=C(CSc1nc2ccccc2s1)NNC(=S)Nc1ccc(Br)cc1`, the inhibition was -0.6% (inactive).
As for `O=C(CCS(=O)(=O)c1ccccc1)Nc1nc2c(s1)COc1ccccc1-2`, the inhibition was 6.6% (inactive).
Turning to `O=C(Oc1csc(=S)n1C(=O)c1ccccc1)c1ccccc1`, the inhibition was -3% (inactive).
Take `COc1cc(C(=O)Nc2ccc(S(=O)(=O)NC(C)(C)C)cc2)cc(OC)c1OC`: the inhibition is -3.5% (inactive).
As for `CCn1c(Cc2ccccc2)nnc1SCC(=O)NC1CC1`, the inhibition is 10.7% (inactive).
For the compound `NCCN1CCN(CCN)CC1`, the inhibition is -3% (inactive).
Turning to `CC(C)(C)NS(=O)(=O)c1ccc(Oc2ncc(C(F)(F)F)cc2Cl)cc1`, the inhibition was 12.1% (inactive).
As to `CCNC(=O)CCn1nc(-c2ccc(Cl)cc2)c2ccccc2c1=O`, the inhibition is -0.2% (inactive).
As to `Fc1ccc(-n2[nH]nnc2=S)cc1N1CCCC1`, the inhibition is 10.6% (inactive).
As for `N=c1c2c(-c3ccccc3)c(-c3ccccc3)n(Cc3ccccc3)c2ncn1CCCn1ccnc1`, the inhibition was -9.6% (inactive).
Take `C(=N\Nc1nc2ccccc2s1)/c1cccs1`: the inhibition was -5.8% (inactive).
For the compound `CN1CCCCc2c1[nH]c1ccccc1c2=O`, the inhibition was 5.2% (inactive).
As to `Cc1cccc(N=C2NC(=O)CS2)c1C`, the inhibition is 7% (inactive).
Turning to `Cc1cc(C)n(C(=O)c2ccc(NC(=O)C3COc4ccccc4O3)cc2)n1` (stereo unspecified), the inhibition is 1.1% (inactive).
For the compound `CC(=O)Nc1nc2n(n1)C(c1ccc(F)cc1)C=C(c1ccccc1)N2` (stereo unspecified), the inhibition is 13.3% (inactive).
As for `CCC(=O)Nc1nc(-c2ccccc2)ns1`, the inhibition is -1.3% (inactive).
For `OCCN=C1CCCc2c1[nH]c1ccc(Br)cc21`, the inhibition was -20.7% (inactive).
Turning to `COc1cc2c(cc1OC)CN(C(=O)C(C)(C)C)CC2`, the inhibition is -1.3% (inactive).
The same measure, in the same setting: with `Cc1cc(OCc2ccc(F)cc2)nc(-c2ccccc2O)n1` the figure was 2.1% (inactive).
Consider `COC(=O)CN(c1ccc(F)cc1)S(=O)(=O)c1ccc2c(c1)OCCO2`, for which the inhibition was 10.7% (inactive).
Same read-out and setting: as for `CC(Sc1nc(N)cc(=O)[nH]1)C(=O)NC1CCCCC1` (stereo unspecified), the figure is 9% (inactive).
`CO/N=C/C(=N\Nc1ccc(C)cc1)C(=O)c1ccc(OC)cc1`: the inhibition is -0.5% (inactive).
As for `O=C(CC(c1ccccc1)c1ccccc1)NCC1CCCO1` (stereo unspecified), the inhibition is -0.2% (inactive).
Same read-out and setting: as for `Cc1ccc(CC2S/C(=C(/C#N)C(=O)NCc3ccco3)N(c3ccccc3)C2=O)cc1` (stereo unspecified), the figure is 2.8% (inactive).
Same read-out and setting: as for `O=C(Nc1ccccc1)N1CCC(c2ccccc2)C1` (stereo unspecified), the figure is -9.2% (inactive); as for `CN1C(=O)C2(NCCc3c2[nH]c2ccccc32)c2ccccc21` (stereo unspecified), -6.1% (inactive); as for `CC(=O)N1CN2CN(C(C)=O)CC(C(=O)c3ccccc3)(C2)C1`, -10.6% (inactive).
For `O=C(COC(=O)C1(c2ccccc2F)CCCC1)NC1CCS(=O)(=O)C1` (stereo unspecified), the inhibition was -1% (inactive).
`Cc1nn(CC(=O)Nc2ccc(C(=O)N(C)C)cc2)c(=O)c2ccccc12`: the inhibition was 4.3% (inactive).
On the same count and under the same terms, with `Cc1ccc(-c2cc(C(=O)NCc3ccccn3)no2)cc1` the figure was 3.6% (inactive).
As for `Cc1ccc(S(=O)(=O)Nc2cc(C(=O)NCCN3CCCC3)ccc2N2CCCCC2)cc1`, the inhibition was -7.7% (inactive).
`COc1ccccc1-n1cnc2cc(C(=O)NCC3CCCO3)ccc21` (stereo unspecified): the inhibition was 13.3% (inactive).
For the compound `CCc1ccc2oc(-c3cc(N)ccc3O)nc2c1`, the inhibition was -11.6% (inactive).
Same read-out and setting: as for `CCOC(=O)c1oc2ccccc2c1NC(=O)Cc1cccs1`, the figure is 0.3% (inactive); as for `O=C(NC1CCCCC1)N(CCN1CCOCC1)Cc1cc2cc3c(cc2[nH]c1=O)OCCO3`, 32.9% (inactive).
Take `NC(=O)COC(=O)CCCc1c[nH]c2ccccc12`: the inhibition is 2.3% (inactive).
With `C=CCn1c(COc2ccc(Cl)cc2)nnc1SCC(=O)N/N=C/c1cccc(O)c1`, the inhibition was -5.9% (inactive).
`COC(=O)c1ccc(CSc2nnc(-c3ccncc3)n2Cc2ccccc2)o1`: the inhibition was 1.6% (inactive).
Same read-out and setting: as for `CC(=O)Nc1nc2cc3c(cc2s1)OCO3`, the figure is 1.3% (inactive); as for `Cc1ccc(N/N=C/c2ccc(N3CCOCC3)cc2)cc1C`, -7.8% (inactive); as for `Cc1cccc(N(CC(=O)N/N=C/c2ccc(OCC(=O)NCc3ccco3)cc2)S(C)(=O)=O)c1C`, -6.2% (inactive).
The same measure, in the same setting: as for `COc1ccccc1-c1cc(C(F)(F)F)nc(S(=O)(=O)CCCC(=O)N2CCCCC2C)n1` (stereo unspecified), the figure is 7.4% (inactive); as for `CCOC(=O)c1c(C)c(C(=O)O)n(C)c1C`, -14.7% (inactive).
Turning to `Cc1ccccc1-c1nc(CN2CCC(C(=O)NCCCN3CC(C)CC(C)C3)CC2)c(C)o1` (stereo unspecified), the inhibition is 0.8% (inactive).
In the case of `CCOc1ccc(C=O)cc1CN1CCCCC1`, the inhibition is -10% (inactive).
In the case of `CCOC(=O)Cc1cc(-c2ccc(O)cc2)nc2ccc3ccccc3c12`, the inhibition is -11.7% (inactive).
Still for that read-out and setting: as for `O=C(NCc1ccco1)c1cc(-c2ccc(Cl)cc2)on1`, the figure is 10.5% (inactive).
Same read-out and setting: as for `CCN1/C(=C\C=C\C2=[N+](CC)c3ccccc3C2(C)C)C(C)(C)c2ccccc21`, the figure is -15.4% (inactive); as for `CC(=O)NC1CC2CCCC(C1)N2` (stereo unspecified), -18.6% (inactive).
Take `COc1ccc(-c2nc(C#N)c(NCCCN(C)C)o2)cc1OC`: the inhibition is 4.5% (inactive).
For the compound `COc1ccc(S(=O)(=O)Nc2cc3c(C(C)=O)c(C)oc3c3ccccc23)cc1`, the inhibition was -5.1% (inactive).
As to `O=C(c1ccc(Cl)cc1)N1CCCOC1`, the inhibition is -2% (inactive).
Turning to `Cc1ccc(CSc2nc3ccccc3cc2C=O)cc1`, the inhibition is -4% (inactive).
Still for that read-out and setting: as for `COC1(c2ccccc2)NC(=S)NN=C1c1ccccc1` (stereo unspecified), the figure is -7.4% (inactive); as for `O=C(NCc1ccncc1)c1ccc(Br)cc1`, 0.2% (inactive); as for `CCOC(=O)c1cnc(-n2nc(C)cc2C)nc1NCc1ccccc1`, -4.4% (inactive).
Regarding `Cc1ccccc1CS(=O)(=O)c1nnc([C@H](Cc2ccccc2)NC(=O)OC(C)(C)C)o1`, the inhibition was 0.1% (inactive).
Regarding `Cc1ccc(C(=O)NCCCn2ccnc2)cn1`, the inhibition was 1.3% (inactive).
Take `CC1=NNC(=O)/C1=C\c1cn(-c2ccccc2)nc1-c1ccc(Cl)cc1`: the inhibition is -11.5% (inactive).
Regarding `Cc1ccc(OCc2ccoc2C(=O)O)cc1C`, the inhibition is -8.8% (inactive).
The same measure, in the same setting: with `Cc1ncc(CO)c2cc(C(N)=O)c(=Nc3ccccc3)oc12` the figure was -1.3% (inactive); with `CCOC(=O)C1CCN(Cc2ccccc2C)CC1`, 5.4% (inactive); with `COc1ccc(C(C)(C)C)cc1S(=O)(=O)N1CCN(C)CC1`, -1.6% (inactive).
The same measure, in the same setting: as for `CCOC(=O)Cn1c(SC)nc2sc3c(c2c1=O)CC(C)(C)OC3`, the figure is -24.8% (inactive); as for `COCCCNC(=O)c1cn(C)c(=O)c2cc(OC)c(OC)cc12`, -7.3% (inactive).
On to `CCOC(=O)C1=C(SCC)c2cc3c(n2C1=O)CCCC3`, for which the inhibition was 8.4% (inactive).
Turning to `O=S(=O)(Cc1ccccc1Cl)N1CCN(Cc2ccc3c(c2)OCO3)CC1`, the inhibition was 41.5% (inactive).
On to `O=C(NCc1ccco1)c1ccc(CS(=O)(=O)Cc2ccc(Cl)cc2)o1`, for which the inhibition was -2.2% (inactive).
`Cc1cccc(OCCN2CSC(=S)N(C)C2)c1`: the inhibition was 2.2% (inactive).
Turning to `O=C(CCN1C(=O)C2C3C=CC(C3)C2C1=O)NCC1CCCO1` (stereo unspecified), the inhibition was 9.9% (inactive).
On to `CCOc1cc(/C=C2/C(=O)N(c3ccccc3)N=C2C)ccc1OC(=O)c1ccco1`, for which the inhibition was 4.7% (inactive).
Turning to `CC(=NCCCO)c1c(O)n(Cc2ccccc2)c(=O)[nH]c1=O`, the inhibition was 3.6% (inactive).
Turning to `CC(C)CCN1CC(C(=O)NCCC2=CCCCC2)CC1=O` (stereo unspecified), the inhibition was -12.9% (inactive).
`Cc1cccnc1Nc1nc(-c2ccccn2)cs1`: the inhibition is -5.7% (inactive).

Still in this assay, the particulars now being: cell-based imaging, cytoskeleton assembly phenotype, high content; cell count; at 10 µM; stronger effect = lower value.
`O=C(O)C1CCCCC1C(=O)Nc1cc(Cl)ccc1Cl` (stereo unspecified) gave a cell count of 94.2%.
The compound `N#CC1=C2SCC(O)(c3ccccc3)N2C(=O)CC1c1cccs1` (stereo unspecified) displayed a cell count of 26.4%.
`Cn1cc(/C=N/n2cnc3scc(-c4ccc(Cl)cc4)c3c2=O)c2ccccc21`: the cell count stood at 60.8%.
In turn, `COc1ccc(-c2cc(C(F)(F)F)n3nc(C(=O)Nc4cc(C)on4)cc3n2)cc1OC` gave a cell count of 92.1%.
Same read-out and setting: with `COc1ccc(NC(=O)/C(Cl)=C(/Cl)S(=O)Cc2ccc(C)cc2)cn1` (stereo unspecified) the figure was 63.4%; with `CSc1nc(N(C)NC(=O)c2cccc(C)c2)c2ccccc2n1`, 31.6%; with `O=Cc1cc2ccccc2nc1SCc1ccc(Cl)c(Cl)c1`, 94.3%.
Same read-out and setting: with `COc1cc2c3nnc(-c4ccc(F)cc4)c-3cn(Cc3ccccc3)c2cc1OC` the figure was 86.3%; with `CCOc1cc(CNc2ccc3c(c2)OCCO3)cc(Br)c1OC`, 37.1%; with `O=C(Nc1nc(-c2ccncc2)cs1)C1COc2ccccc2O1` (stereo unspecified), 92.2%.

The next assay has as its system cell-based imaging, cytoskeleton assembly phenotype, high content. Described as above.
Details: not given
The term IC50 denotes the point on the concentration scale where inhibition reaches its midpoint. For the compound `O=C(O)C1CCCCC1C(=O)Nc1cc(Cl)ccc1Cl` (stereo unspecified), the IC50 was > 10 µM (inactive).
On the same count and under the same terms, with `N#CC1=C2SCC(O)(c3ccccc3)N2C(=O)CC1c1cccs1` (stereo unspecified) the figure was > 10 µM (inactive).
As for `Cn1cc(/C=N/n2cnc3scc(-c4ccc(Cl)cc4)c3c2=O)c2ccccc21`, the IC50 is > 10 µM (inactive).
`COc1ccc(-c2cc(C(F)(F)F)n3nc(C(=O)Nc4cc(C)on4)cc3n2)cc1OC`: the IC50 is > 10 µM (inactive).
The same measure, in the same setting: as for `COc1ccc(NC(=O)/C(Cl)=C(/Cl)S(=O)Cc2ccc(C)cc2)cn1` (stereo unspecified), the figure is > 10 µM (inactive); as for `CSc1nc(N(C)NC(=O)c2cccc(C)c2)c2ccccc2n1`, > 10 µM (inactive); as for `O=Cc1cc2ccccc2nc1SCc1ccc(Cl)c(Cl)c1`, > 10 µM (inactive).
For `COc1cc2c3nnc(-c4ccc(F)cc4)c-3cn(Cc3ccccc3)c2cc1OC`, the IC50 is > 10 µM (inactive).
The same measure, in the same setting: with `CCOc1cc(CNc2ccc3c(c2)OCCO3)cc(Br)c1OC` the figure was > 10 µM (inactive); with `O=C(Nc1nc(-c2ccncc2)cs1)C1COc2ccccc2O1` (stereo unspecified), > 10 µM (inactive).

Source of the values: PubChem BioAssay AID1249 (Columbia University Molecular Screening Center, 2008).
